# According to US20030026797A1, “Antifungal compositions” (priority 1996, published 2003):
# Columns and labels:
# [1] = system: conidia of Fusarium oxysporum; experiment: Survival of hot-water treated conidia of Fusarium oxysporum (plating on PDA-V agar); format: cell-based; settings: 2 hrs at 43.5° C., 25,000 conidia per ml, no enzymes
# Procedure: Viability of conidia of Fusarium oxysporum was measured at the start and at the end of the hot-water treatment. (2 hrs at 43.5° C.).
# Five samples of 1 ml were mixed each with 20 ml of PDA containing 50 microgram/ml vendarcin (PDA-V) and poured into petri dishes of 14 cm diameter. Colonies were counted after 2 and 5 days at 25° C.
# In the presence of natamycin and fungal cell wall degrading enzymes, 2 samples of 25 ml were taken from the bath at the beginning and the end of the treatment. These samples were centrifuged at 3,000*g for 15 min. The pellet containing the conidia was washed several times with sterile water to remove the antifungal agents, followed by centrifugation and dilution to allow for plating on PDA-V as described above. […]
# Chitinase and β-1,3-glucanase respectively were added to the hot-water bath to a final activity of 36,000 and 10,000 units per liter. Units are as defined in Example 1.
# Rhizoctonia = experiment: Soil treatment against Rhizoctonia infection of flower bulbs (visual inspection after 4 weeks); format: in vivo; settings: 18° C.
# Procedure: Bulbs were planted in pots at standard soil at a depth of 20 cm. Oat borne sclerotia of Rhizoctonia were mixed through the soil to infect the bulbs. Temperature was maintained at 18° C. during the experiment. Experiments were replicated 5 fold. Natamycin and fungal cell wall degrading enzymes were mixed as powders through the soil prior to infection with Rhizoctonia. Natamycin was tested at final concentrations of 1000, 500 and 100 mg/kg. Chitinase and β-1,3-glucanase was mixed through the soil to a final activity of 3600 and 1000 units per kg of soil. After 4 weeks bulbs were monitored for fungal infection by means of visual inspection.
compound,measurement,setting,value
"C[C@@H]1C/C=C/C=C/C=C/C=C/[C@H](O[C@@H]2O[C@H](C)[C@@H](O)[C@H](N)[C@@H]2O)C[C@@H]2O[C@](O)(C[C@@H](O)C[C@H]3O[C@@H]3/C=C/C(=O)O1)C[C@H](O)[C@H]2C(=O)O [Natamycin, natamycin]",Surviving conidia per ml,[1]; natamycin 100 mg/L in hot-water bath,70 per ml
same,Surviving conidia per ml,[1]; natamycin 200 mg/L in hot-water bath,50 per ml
same,Surviving conidia per ml,[1]; natamycin 300 mg/L in hot-water bath,<1 per ml
same,Percentage of bulbs showing fungal infection,Rhizoctonia; natamycin 100 mg/kg soil,50%
same,Percentage of bulbs showing fungal infection,Rhizoctonia; natamycin 500 mg/kg soil,42%
same,Percentage of bulbs showing fungal infection,Rhizoctonia; natamycin 1000 mg/kg soil,19%
